The values that follow are results of earlier work, collected in paper PMC12730333 (Biology, 2025).

The data set relates to HepG2 cells. Further details: method as in Araújo et al. 120. The note with it: ref Araújo et al. 120; read-out: cytotoxic concentration (compared with CC50 in HepG2); cited from earlier work.

On to `C[C@@H]1[C@H](O)[C@@H](C)/C=C/C=C/C=C/C=C/C=C/C=C/C=C/[C@H](O[C@@H]2O[C@H](C)[C@@H](O)[C@H](N)[C@@H]2O)C[C@@H]2O[C@](O)(C[C@@H](O)C[C@@H](O)[C@H](O)CC[C@@H](O)C[C@@H](O)CC(=O)O[C@H]1C)C[C@H](O)[C@H]2C(=O)O` [Amphotericin B], for which the CC50 is 35.2 µM.
